The text below walks through data of ChEMBL document CHEMBL1138200, “Dihydropyrrolopyrazole transforming growth factor-beta type I receptor kinase domain inhibitors: a novel benzimidazole series with selectivity versus transforming growth factor-beta type II receptor kinase and mixed lineage kinase-7” (J Med Chem, 2006).

The term IC50 denotes the point on the concentration scale where inhibition reaches its midpoint.

Assay [1] deals with Mitogen-activated protein kinase kinase kinase 20 (Homo sapiens, UniProt Q9NYL2). Briefly: Inhibition of MLK7.
Mitogen-activated protein kinase kinase kinase 20, sequence (Q9NYL2 whole entry): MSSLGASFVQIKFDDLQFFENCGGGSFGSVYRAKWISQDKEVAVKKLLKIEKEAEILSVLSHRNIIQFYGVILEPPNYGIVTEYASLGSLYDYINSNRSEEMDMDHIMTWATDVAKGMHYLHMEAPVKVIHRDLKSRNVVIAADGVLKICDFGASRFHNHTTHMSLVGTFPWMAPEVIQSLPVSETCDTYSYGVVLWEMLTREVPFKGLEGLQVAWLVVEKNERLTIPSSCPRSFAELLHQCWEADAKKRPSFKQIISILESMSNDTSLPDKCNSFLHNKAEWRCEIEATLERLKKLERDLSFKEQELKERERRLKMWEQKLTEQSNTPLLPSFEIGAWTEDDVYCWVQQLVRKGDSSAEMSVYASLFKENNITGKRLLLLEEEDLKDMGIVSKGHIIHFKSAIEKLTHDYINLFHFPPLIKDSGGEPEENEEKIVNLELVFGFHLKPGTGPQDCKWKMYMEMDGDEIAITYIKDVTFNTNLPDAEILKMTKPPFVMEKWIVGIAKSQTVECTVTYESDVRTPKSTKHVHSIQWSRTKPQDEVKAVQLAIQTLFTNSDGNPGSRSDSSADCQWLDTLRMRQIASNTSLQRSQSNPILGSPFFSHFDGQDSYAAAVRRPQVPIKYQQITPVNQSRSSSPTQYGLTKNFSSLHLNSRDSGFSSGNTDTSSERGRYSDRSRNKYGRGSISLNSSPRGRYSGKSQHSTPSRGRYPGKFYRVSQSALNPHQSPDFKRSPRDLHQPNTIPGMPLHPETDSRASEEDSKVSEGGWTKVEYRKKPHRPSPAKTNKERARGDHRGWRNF
The target in assay [2] is T1, TGF-beta receptor type-1 (Homo sapiens, UniProt P36897).
T1 sequence (P36897 whole entry): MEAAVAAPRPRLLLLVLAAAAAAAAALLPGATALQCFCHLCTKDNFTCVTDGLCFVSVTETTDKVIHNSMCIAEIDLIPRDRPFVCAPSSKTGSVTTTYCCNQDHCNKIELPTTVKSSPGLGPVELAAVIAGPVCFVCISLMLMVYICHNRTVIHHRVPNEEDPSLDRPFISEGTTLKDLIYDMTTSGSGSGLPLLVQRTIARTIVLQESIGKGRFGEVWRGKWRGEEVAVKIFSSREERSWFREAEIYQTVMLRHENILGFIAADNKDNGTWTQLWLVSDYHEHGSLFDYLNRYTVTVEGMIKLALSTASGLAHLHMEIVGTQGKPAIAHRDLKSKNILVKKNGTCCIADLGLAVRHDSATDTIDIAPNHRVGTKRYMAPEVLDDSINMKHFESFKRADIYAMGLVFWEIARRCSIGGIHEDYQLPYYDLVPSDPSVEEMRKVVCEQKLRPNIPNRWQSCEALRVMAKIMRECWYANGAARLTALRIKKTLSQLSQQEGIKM
Briefly: Inhibition of TGFbeta R1 induced transcriptional activation of p3TP-Lux in mink Mv1Lu lung cells. The format is functional, cell-based, Mustela.

The target of the next assay is TGF-beta receptor type-2 (Homo sapiens, UniProt P37173). The assay can be described thus: Inhibition of recombinant human TGFbeta R2 expressed in Sf9 cells.
TGF-beta receptor type-2, sequence (P37173 whole entry): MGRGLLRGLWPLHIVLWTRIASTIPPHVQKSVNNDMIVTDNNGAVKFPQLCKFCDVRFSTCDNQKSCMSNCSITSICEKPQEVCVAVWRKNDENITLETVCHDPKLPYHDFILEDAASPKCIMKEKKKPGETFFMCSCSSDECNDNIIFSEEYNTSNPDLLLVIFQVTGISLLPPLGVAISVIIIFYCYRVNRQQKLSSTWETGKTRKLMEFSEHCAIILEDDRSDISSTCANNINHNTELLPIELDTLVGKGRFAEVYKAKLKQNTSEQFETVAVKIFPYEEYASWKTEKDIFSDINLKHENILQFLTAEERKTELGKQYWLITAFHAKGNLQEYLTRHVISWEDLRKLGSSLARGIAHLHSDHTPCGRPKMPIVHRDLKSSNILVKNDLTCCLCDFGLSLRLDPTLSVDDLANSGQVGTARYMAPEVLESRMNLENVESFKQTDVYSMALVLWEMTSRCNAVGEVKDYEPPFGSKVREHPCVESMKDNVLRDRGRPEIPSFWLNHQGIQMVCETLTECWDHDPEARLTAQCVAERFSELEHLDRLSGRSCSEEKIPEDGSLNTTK
The target of assay [3] is T1, TGF-beta receptor type-1. The assay can be described thus: Inhibition of recombinant human TGFbeta R1 expressed in Sf9 cells.
Assay [4] is described as follows: Inhibitory activity against TGF-beta-stimulated proliferation in NIH3T3 cells. The class given is functional, cell-based. The note with it: Mus musculus.
For another assay, the target named is Cytochrome P450 2D6 (Homo sapiens, UniProt P10635). Briefly: Inhibition of cytochrome P450 2D6. The format is ADME.
Cytochrome P450 2D6, sequence (P10635 whole entry): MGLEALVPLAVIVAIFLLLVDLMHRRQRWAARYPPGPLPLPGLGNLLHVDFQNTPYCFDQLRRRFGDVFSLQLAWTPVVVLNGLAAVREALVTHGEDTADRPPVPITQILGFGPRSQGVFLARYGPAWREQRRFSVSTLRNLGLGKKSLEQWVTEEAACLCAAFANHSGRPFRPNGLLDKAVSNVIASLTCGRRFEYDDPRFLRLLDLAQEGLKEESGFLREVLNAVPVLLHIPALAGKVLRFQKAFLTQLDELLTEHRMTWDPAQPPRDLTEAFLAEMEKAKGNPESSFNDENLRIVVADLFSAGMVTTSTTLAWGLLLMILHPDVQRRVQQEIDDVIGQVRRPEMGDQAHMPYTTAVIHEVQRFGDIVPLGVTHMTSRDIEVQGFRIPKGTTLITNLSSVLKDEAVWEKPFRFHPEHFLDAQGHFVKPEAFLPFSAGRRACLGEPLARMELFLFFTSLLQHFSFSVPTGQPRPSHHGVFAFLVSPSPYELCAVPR

Turning to `Cc1cccc(-c2nn3c(c2-c2ccc4c(c2)ncn4CCCOC2CCCCO2)CCC3)n1` (stereo not drawn), the IC50 was above 20 µM in assay [1], 2.43 µM at TGF-beta receptor type-1 [2], 14.5 µM at TGF-beta receptor type-2 and 1.83 µM on TGF-beta receptor type-1 [3].
With `CN(C)CCCn1cnc2ccc(-c3c(-c4ccccn4)nn4c3CCC4)cc21`, the IC50 in assay [4] is 1 µM; in assay [1], 15.9 µM; against TGF-beta receptor type-1 [2], 0.104 µM; on TGF-beta receptor type-2, above 20 µM; at TGF-beta receptor type-1 [3], 0.398 µM.
Regarding `Cn1cnc2cc(-c3c(-c4ccccn4)nn4c3CCC4)ccc21`, the IC50 was 1.62 µM in assay [4]; above 20 µM in assay [1]; 1.37 µM on TGF-beta receptor type-1 [2]; 19.6 µM on TGF-beta receptor type-2; 4.74 µM at TGF-beta receptor type-1 [3].
As for `OCCCn1cnc2ccc(-c3c(-c4ccccn4)nn4c3CCC4)cc21`, the half-inhibitory concentration (IC50) in assay [4] was determined as 0.371 µM; in assay [1] it was 0.708 µM; on TGF-beta receptor type-1 [2], 0.079 µM; at TGF-beta receptor type-2, 0.352 µM; on TGF-beta receptor type-1 [3] it was 0.079 µM.
On to `CCN(CC)CCCn1cnc2ccc(-c3c(-c4cccc(C)n4)nn4c3CCC4)cc21`, for which the IC50 in assay [4] is 0.274 µM; in assay [1], above 20 µM; at TGF-beta receptor type-1 [2], 0.1 µM; at TGF-beta receptor type-2 it was above 20 µM; at TGF-beta receptor type-1 [3], 0.122 µM.
For `c1ccc(-c2nn3c(c2-c2ccc4[nH]ccc4c2)CCC3)nc1`, the IC50 (in assay [1]; at TGF-beta receptor type-2; on TGF-beta receptor type-1 [3]) was above 20 µM each time.
With `Cc1cccc(-c2nn3c(c2-c2ccc4ncn(CCCO)c4c2)CCC3)n1`, the IC50 in assay [4] was determined as 0.371 µM; in assay [1] it was 2.81 µM; at TGF-beta receptor type-1 [2], 0.078 µM; on TGF-beta receptor type-2, 0.69 µM; on TGF-beta receptor type-1 [3], 0.041 µM.
Turning to `c1ccc(-c2nn3c(c2-c2ccc4[nH]cnc4c2)CCC3)nc1`, the IC50 at TGF-beta receptor type-2 came out at 8.73 µM.
For `c1ccc(-c2nn3c(c2-c2ccc4c(c2)ncn4CCCOC2CCCCO2)CCC3)nc1` (stereo not drawn), the 50% inhibitory concentration (IC50) is 4.7 µM in assay [4]; above 20 µM in assay [1]; 5.89 µM at TGF-beta receptor type-1 [2]; above 20 µM on TGF-beta receptor type-2; 6.58 µM on TGF-beta receptor type-1 [3].
In the case of `Cn1cnc2ccc(-c3c(-c4ccccn4)nn4c3CCC4)cc21`, the IC50 worked out at 0.032 µM in assay [4]; 1.31 µM in assay [1]; 0.008 µM on TGF-beta receptor type-1 [2]; 0.395 µM at TGF-beta receptor type-2; 0.075 µM at TGF-beta receptor type-1 [3].
The like results for `Cc1cccc(-c2nn3c(c2-c2ccc4ncn(C)c4c2)CCC3)n1` were, in that order, 0.096 µM, 2.34 µM, 0.029 µM, 0.668 µM and 0.022 µM.
The like results for `Cc1cccc(-c2nn3c(c2-c2ccc4ncn(CCCN5CCCC5)c4c2)CCC3)n1` were, in that order, 0.249 µM, above 20 µM, 0.117 µM, above 20 µM and 0.074 µM.
`c1ccc(-c2n[nH]cc2-c2ccnc3ccccc23)nc1`: the IC50 came to 0.081 µM in assay [4], 1.4 µM in assay [1] and 0.4 µM on TGF-beta receptor type-2.
Consider `Cc1cccc(-c2nn3c(c2-c2ccc4ncn(CCCN5CCCCC5)c4c2)CCC3)n1`, for which the IC50 was 0.15 µM in assay [4]; above 20 µM in assay [1]; 0.051 µM at TGF-beta receptor type-1 [2]; above 20 µM on TGF-beta receptor type-2; 0.155 µM at TGF-beta receptor type-1 [3].
For the molecule `Cc1cccc(-c2nn3c(c2-c2ccc4c(ccn4C)c2)CCC3)n1`, the IC50 in assay [1] is above 20 µM; at TGF-beta receptor type-2, above 20 µM; at TGF-beta receptor type-1 [3], 4.1 µM.
For the molecule `c1ccc(-c2nn3c(c2-c2ccc4ncn(CCCN5CCCC5)c4c2)CCC3)nc1`, the half-maximal inhibitory concentration (IC50) amounted to 0.854 µM in assay [4]; 4.88 µM in assay [1]; 0.226 µM against TGF-beta receptor type-1 [2]; 10.8 µM on TGF-beta receptor type-2; 0.246 µM at TGF-beta receptor type-1 [3].
With `Cc1cccc(-c2nn3c(c2-c2ccc4ncn(CCCN5CCOCC5)c4c2)CCC3)n1`, the IC50 in assay [4] amounted to 0.277 µM; in assay [1], 8.48 µM; against TGF-beta receptor type-1 [2], 0.186 µM; on TGF-beta receptor type-2, 19.8 µM; on TGF-beta receptor type-1 [3], 0.069 µM.
On to `Cc1cccc(-c2nn3c(c2-c2ccc4nc[nH]c4c2)CCC3)n1`, for which the concentration for half-maximal inhibition (IC50) in assay [4] is 0.042 µM; in assay [1], 15.9 µM; against TGF-beta receptor type-1 [2], 0.015 µM; on TGF-beta receptor type-2 it was 1.3 µM; on Cytochrome P450 2D6, 27 µM; on TGF-beta receptor type-1 [3], 0.047 µM.
Take `Cn1ccc2cc(-c3c(-c4ccccn4)nn4c3CCC4)ccc21`: the IC50 is 16.6 µM in assay [1], above 20 µM on TGF-beta receptor type-2 and 12.2 µM at TGF-beta receptor type-1 [3].
`Cc1cccc(-c2nn3c(c2-c2ccc4ncn(CCCN(C)C)c4c2)CCC3)n1`: the IC50 in assay [4] was 0.139 µM; in assay [1] it was above 20 µM; on TGF-beta receptor type-1 [2], 0.053 µM; at TGF-beta receptor type-2, above 20 µM; on TGF-beta receptor type-1 [3] it was 0.085 µM.
